Results: patent publication US8343934B2, “Diverse lead compound autotaxin inhibitors” (University of Memphis, priority 2009, dated 2013)
Where “and” joins values, the source holds several entries; their conditions need not be identical. Equal entries are not always repeated.

Molecular target: T1, ATX (Homo sapiens, UniProt Q13822)
T1 construct: conditioned serum-free medium (CCM) from MDA-MB-435 cells as the source of ATX; endogenous in cells; host or cells: MDA-MB-435 cells (about 10x concentrated conditioned serum-free medium)
Test: ATX inhibition assay (FS-3 substrate)
Format: biochemical
Conditions: for % Response: preliminary screen, FS-3 hydrolysis at one hour, normalized to vehicle control, mean±S.D., same values given at 10 μM in Table 5; for IC50 / % ATX Acitivity (10 μM): FS-3 substrate; for % ATX Acitivity (10 μM): 10 μM compound
Method: ATX inhibition was assayed using the substrate FS-3 (Echelon Biosciences, Inc., Salt Lake City, Utah, USA). The FS-3 assay used ˜10 times concentrated conditioned serum-free medium (CCM) from MDA-MB-435 cells as the source of ATX, while CCM comprised one-third of the total volume. The final volume for FS-3 was comprised of the substrate at varying concentrations and 30 μM charcoal-stripped fatty acid free BSA (Sigma Aldrich) in assay buffer (1 mM each CaCl2 and MgCl2, 5 mM KCl, 140 mM NaCl, 50 mM Tris pH 8.0).
All assays were performed in 96-well plates with data read at 1 minute intervals by a Synergy2 system (BioTek, Winooski, Vt.). The fluorescence produced upon the hydrolysis of FS-3 was monitored using an excitation wavelength of 485 nm and an emission wavelength of 528 nm at 37° C. (Ferguson et al., 2006). […] All readings were normalized to vehicle control after subtraction of fluorescence in the absence of CCM. Data are shown as the mean±S.D. of at least three wells.

[1] = Calculated IC50 data for the 30 active compounds

Row | SMILES | % Response | also measured
1 | CC1=NN(c2ccc(/C=C/c3ccc(NC(=O)Nc4ccc(/C=C/c5ccc(N6N=C(C)C(N=Nc7ccccc7C(=O)O)C6=O)cc5S(=O)(=O)O)c(S(=O)(=O)O)c4)cc3S(=O)(=O)O)c(S(=O)(=O)O)c2)C(=O)C1N=Nc1ccccc1C(=O)O.[Na+] (stereo not shown) [compound 34937] | 87 ± 3.1% | 
2 | O=C(Nc1ccc2c(O)cc(S(=O)(=O)O)cc2c1)Nc1ccc2c(O)cc(S(=O)(=O)O)cc2c1 [compound 45174] | 89 ± 3.2% | 
3 | Cc1[nH]n(-c2cc(S(=O)(=O)O)ccc2Cl)c(=O)c1N=Nc1c(NC(=O)c2ccc(N)cc2)ccc2cc(S(=O)(=O)O)ccc12.[Na+] [compound 75963] | 51 ± 4.4% | 
4 | O=C(Nc1ccc(S(=O)(=O)c2ccc(NC(=O)Nc3ccc4cc(S(=O)(=O)O)ccc4c3)cc2)cc1)Nc1ccc2cc(S(=O)(=O)O)ccc2c1.[Na+] [compound 12149] | 57 ± 6.5% | 
5 | O=C(Nc1ccc2cc(S(=O)(=O)O)ccc2c1)c1ccc(N=Nc2c(S(=O)(=O)O)cc3cc(S(=O)(=O)O)cc(NC(=O)c4ccccc4)c3c2O)cc1.[Na+] [compound 45620] | 28 ± 3.7% | IC50 [1]: 8.85 µM
6 | NS(=O)(=O)c1ccc(N=NNc2ccc(C(=O)O)cc2)cc1.[Na+] [compound 13232] | 101 ± 9.0% | 
7 | Cc1cc(N)ccc1N=Nc1ccc(Sc2ccc(N=Nc3c(S(=O)(=O)O)cc4cc(S(=O)(=O)O)c(N=Nc5ccc([N+](=O)[O-])cc5)c(N)c4c3O)cc2)cc1.[Na+] [compound 65571] | 74 ± 5.5% | 
8 | NC(=N\N=C/c1ccc(O)c(S(=O)(=O)O)c1)/C(N)=N\N=C/c1ccc(O)c(S(=O)(=O)O)c1.[Na+] [compound 47470] | 90 ± 3.2% | 
9 | COc1cc(N=Nc2c(S(=O)(=O)O)cc3cc(NC(=O)Nc4ccc5c(O)c(N=Nc6ccc7cc(S(=O)(=O)O)ccc7c6)c(S(=O)(=O)O)cc5c4)ccc3c2O)c(C)cc1N [compound 58058] | 30 ± 4.9% | IC50 [1]: 13.8 µM
10 | Cc1ccc(C(=O)Nc2ccc(S(=O)(=O)O)c3cc(S(=O)(=O)O)cc(S(=O)(=O)O)c23)cc1NC(=O)c1cccc(NC(=O)Nc2cccc(C(=O)Nc3cc(C(=O)Nc4ccc(S(=O)(=O)O)c5cc(S(=O)(=O)O)cc(S(=O)(=O)O)c45)ccc3C)c2)c1 [compound 34936] | 73 ± 9.0% and 83 ± 5.8% | 
11 | Nc1ccc(/N=N/c2ccc(-c3ccc(/N=N/c4c(S(=O)(=O)O)cc5cc(S(=O)(=O)O)c(/N=N/c6ccc([N+](=O)[O-])cc6)c(N)c5c4O)cc3)cc2)c2ccc(S(=O)(=O)O)cc12 [NSC 77520] |  | % ATX Acitivity (10 μM): 32 ± 2.7%; IC50: 4.07 µM
12 | Nc1c(N=Nc2ccc([N+](=O)[O-])cc2)c(S(=O)(=O)O)cc2cc(S(=O)(=O)O)c(N=Nc3ccc(-c4ccc(N=Nc5ccc(O)cc5)cc4)cc3)c(O)c12.[Na+] [compound 47752] | 52 ± 5.4% | 
13 | Cc1c(N)cc(S(=O)(=O)O)cc1NC(=O)c1cccc([N+](=O)[O-])c1 [compound 5000] | 100 ± 5.5% | 
14 | O=C(/C=C\c1ccc(NCc2ccc(C(=O)O)cc2)cc1)CCl [compound 106024] | 62 ± 2.5% | 
15 | Nc1ccc(C(=O)Nc2cccc(C(=O)Nc3ccc4c(O)c(N=Nc5ccc(N=Nc6ccc(S(=O)(=O)[O-])cc6)cc5)c(S(=O)(=O)[O-])cc4c3)c2)cc1.[Na+].[Na+] [compound 47767] | 61 ± 3.7% | 
16 | O=C(N/N=C\c1ccc(O)c(S(=O)(=O)O)c1)N/N=C/c1ccc(O)c(S(=O)(=O)O)c1.[Na+] [compound 48776] | 94 ± 3.5% | 
17 | O=C1C(Cl)=C(Nc2ccc(C(=O)Nc3ccc4cc(S(=O)(=O)O)cc(S(=O)(=O)O)c4c3)cc2)C(=O)C(Cl)=C1Nc1ccc(C(=O)Nc2ccc3cc(S(=O)(=O)O)cc(S(=O)(=O)O)c3c2)cc1.[Na+] [compound 12859] | 27 ± 2.8% | IC50 [1]: 0.805 µM

Row | SMILES | % Response | also measured
18 | Nc1cccc(N=Nc2c(S(=O)(=O)[O-])cc3cc(Nc4ccc5c(O)c(N=Nc6cccc(N)c6)c(S(=O)(=O)[O-])cc5c4)ccc3c2O)c1.[Na+].[Na+] [compound 51533] | 67 ± 4.0% | 
19 | Nc1ccc(S(=O)(=O)c2ccc(NCNC(CSSCC(NCNc3ccc(S(=O)(=O)c4ccc(N)cc4)cc3)C(=O)O)C(=O)O)cc2)cc1 (stereo not shown) [compound 39858] | 93 ± 4.6% | 
20 | Cc1ccccc1N=Nc1c(S(=O)(=O)[O-])cc2cc(NC(=O)Nc3ccc4c(O)c(N=Nc5ccc6cc(S(=O)(=O)[O-])ccc6c5)c(S(=O)(=O)[O-])cc4c3)ccc2c1O.[Na+].[Na+].[Na+] [compound 58057] | 29 ± 3.6% | IC50 [1]: 11.6 µM
21 | O=C(COc1ccc(Cl)cc1C(=O)O)NCc1cccc(NC(=O)Nc2ccc(S(=O)(=O)F)cc2)c1 [compound 212086] | 95 ± 4.3% | 
22 | O=C(Nc1ccc(C(=O)Nc2cc(S(=O)(=O)O)cc3cccc(S(=O)(=O)O)c23)cc1)Nc1ccc(C(=O)Nc2cc(S(=O)(=O)O)cc3cccc(S(=O)(=O)O)c23)cc1.[Na+] [compound 12188] | 105 ± 8.0% | 
23 | O=C(Nc1ccc2c(O)cc(S(=O)(=O)[O-])cc2c1)Nc1ccc2c(O)c(N=Nc3ccc4cc(S(=O)(=O)[O-])ccc4c3)c(S(=O)(=O)[O-])cc2c1.[Na+].[Na+].[Na+] [compound 45616] | 64 ± 3.0% | 
24 | O=C(O)c1ccccc1-c1c2ccc(=Nc3ccccc3)cc-2oc2cc(Nc3ccc(S(=O)(=O)O)cc3)ccc12.[Na+] [compound 11242] | 73 ± 3.7% | 
25 | O=C(CC(C(=O)O)S(=O)(=O)O)Nc1ccc(S(=O)(=O)c2ccc(NC(=O)CC(C(=O)O)S(=O)(=O)O)cc2)cc1.[Na+] (stereo not shown) [compound 2460] | 99 ± 3.1% | 
26 | COc1ccc(/C=N/N=C(N)/C(N)=N/N=C/c2ccc(OC)c(S(=O)(=O)O)c2)cc1S(=O)(=O)O.[Na+] [compound 46954] | 92 ± 3.9% | 
27 | Nc1c(N=Nc2ccc(S(=O)(=O)O)cc2)cc(S(=O)(=O)O)c2ccc(N=Nc3ccc([N+](=O)[O-])cc3)c(O)c12.[Na+] [compound 47725] | 116 ± 4.2% | 
28 | Cc1ccc(N=Nc2c(S(=O)(=O)[O-])cc3cc(NC(=O)Nc4ccc5c(O)c(N=Nc6ccc7cc(S(=O)(=O)[O-])ccc7c6)c(S(=O)(=O)[O-])cc5c4)ccc3c2O)c(C)c1.[Na+].[Na+].[Na+] [compound 65575] | 33 ± 3.7% | IC50 [1]: 18.6 µM
29 | Cc1cc(C(O)(c2ccc(Nc3ccccc3)cc2)c2ccc(Nc3ccc(S(=O)(=O)O)cc3)cc2)ccc1N (stereo not shown) [NSC 5014] |  | % ATX Acitivity (10 μM): 39 ± 4.3%; IC50 (Table 5): 1.27 µM
30 | O=C(Nc1ccc2cc(S(=O)(=O)O)cc(S(=O)(=O)O)c2c1)Nc1ccc2cc(S(=O)(=O)O)cc(S(=O)(=O)O)c2c1.[Na+] [compound 12857] | 100 ± 7.3% | 
31 | Nc1cccc(N=Nc2c(S(=O)(=O)[O-])cc3cc(NC(=O)Nc4ccc5c(O)c(N=Nc6cccc(N)c6)c(S(=O)(=O)[O-])cc5c4)ccc3c2O)c1.[Na+].[Na+] [compound 47750] | 68 ± 5.8% | 
32 | Nc1ccc2cc(S(=O)(=O)[O-])c(N=Nc3ccc(-c4ccc(N=Nc5c(S(=O)(=O)[O-])cc6cc(S(=O)(=O)[O-])cc(N)c6c5O)cc4)cc3)c(O)c2c1.[Na+].[Na+].[Na+] [compound 75779] | 20 ± 5.7% | IC50 [1]: 1.26 µM
33 | Cc1cc(C)c(N=Nc2cc(C)c(N=Nc3c(S(=O)(=O)[O-])cc4cc(Nc5ccccc5)ccc4c3O)cc2C)c(S(=O)(=O)[O-])c1.[Na+].[Na+] [compound 47747] | 73 ± 3.0% | 
34 | Cc1c(N)cc(S(=O)(=O)O)c(N=Nc2ccc(-c3ccc(N=Nc4c(S(=O)(=O)O)cc5cc(S(=O)(=O)O)c(N=Nc6cccc([N+](=O)[O-])c6)c(N)c5c4O)cc3)cc2)c1N.[Na+] [compound 80903] | 32 ± 2.6% | IC50 [1]: 5.88 µM
